Reference: patent US8350039B2, “Substituted isoquinoline derivatives, pharmaceutical compositions, and methods of use as beta-secretase inhibitors” (High Point Pharmaceuticals, LLC, priority 2009, dated 2013)

How the values were obtained:
BACE-1 enzyme = target: T1, BACE-1 enzyme (Homo sapiens, UniProt P56817); assay: BACE Fluorescence Resonance Energy Transfer (FRET) Assay; assay type: biochemical; details: peptide substrate, pH 4-4.5, 30 min pre-incubation, 1.5 hours at room temperature
T1 construct: purchased R & D Systems 931AS
Method: BACE Fluorescence Resonance Energy Transfer (FRET) Assay
In the following assay, the proteolytic activity of BACE is measured by observing cleavage of a fluorescent group from a peptide substrate containing a rhodamine fluorescent donor and a quenching acceptor.
The inhibitory activity of compounds of Formula (I) may be compared to a statine derived control inhibitor STA200 (MP Biomedical Cat. #STA-200). The cleavage reaction occurs when a BACE-1 substrate (Invitrogen, Cat. #P2986) was added to a reaction mixture containing BACE-1 enzyme (R & D Systems, Cat. #931AS) and allowed to proceed for 1.5 hours. Fluorescence, used as a marker of BACE activity, is monitored using 540 nm excitation and 585 nm emission wavelengths (Envision, Perkin Elmer).
A typical assay reaction contains BACE-1 enzyme—in assay buffer (50 mM sodium acetate, pH 4-4.5, 0.01% CHAPS (3-[(3-Cholamidopropyl)dimethylammonio]-1-propanesulfonate), 0.0125% TritonX-100, 0.006% EDTA) which is pre-incubated for 30 minutes with test compound in 7.5% DMSO. The reaction is initiated with the addition of BACE-1 substrate in assay buffer and allowed to proceed for 1.5 hours at room temperature. Assays are conducted in black 384-well microtiter plates and scanned at room temperature using 540 nm excitation and 585 nm emission wavelengths.
A test compound's activity is reported as the IC50.

[1] = tested on: HEK293 cells stably expressing wildtype human APP695 protein (HEK-APPwt cells); assay: Aβ Cell Based Assay (Aβ1-40 secretion, ELISA); details: reduction of Aβ1-40 secretion from HEK-APPwt cells, 6 hours incubation, DAPT as 100% inhibition reference
Method: Aβ Cell Based Assay Procedure
In the following assay, the proteolytic activity of BACE in cells exposed to varying concentrations of a compound of interest is measured by observing the amount of Aβ1-40 secreted from HEK293 cells (Human Embryonic Kidney epithelial cell line) stably expressing wildtype human APP695 protein (HEK-APPwt cells).
HEK-APPwt cells were grown in high glucose DMEM (Dulbecco's Modified Eagles Medium SIGMA Cat. #D5796) supplemented with 25 mM HEPES (4-(2-hydroxyethyl)-1-piperazineethanesulfonic acid) (pH 7.4) (Invitrogen Cat. #15630-114), 0.1 mM NEAA (Non-essential Amino Acids) (BioWhittaker Cat. #13-114E), 10% fetal bovine serum (SIGMA Cat. #F4135) and 250 μg/mL hygromycin (Invitrogen Cat. #10687-010) in T-225 flasks at 37° C. with 5% CO2 and humidity control.
Test compounds were initially prepared in DMSO and diluted with DMEM media containing 2% FBS (Fetal bovine serum). Ten standard compound solutions were prepared having a range of concentrations. The standard compound solutions were used to determine the EC50 of the test compound. The range of concentrations chosen may depend on the compound's predicted potency.
To prepare the cells for the assay, a flask containing HEK-APPwt cells were trypsinized briefly (1 mL trypsin), and once the cells detached, 4 mL of 10% FBS-DMEM was added to the flask. The detached cells were centrifuged at 900 rpm for 5 min to form a pellet.
The HEK-APPwt cell pellet was re-suspended with 10 mL DMEM media containing 2% FBS. 80 μL of the cell suspension was added to each well of a 96-well cell culture plate to give 100×10^4 cells/mL. 10 μL of a standard compound solution was added to each well of the 96-well cell culture plate followed by 10 μL of Alamar blue solution. The cells were incubated at 37° C. in a 5% CO2 incubator for 6 hours.
At the end of the incubation, the plates were removed from incubator, and the supernatant was collected. Aβ1-40 concentration in the medium was measured by using a commercial Aβ1-X ELISA kit (IBL, Japan Cat. #27729). Briefly, the ELISA plates were coated with an anti-human Aβ (N)(82E1) mouse IgG monoclonal antibody. A horseradish peroxidase conjugated anti-human Aβ11-28 mouse IgG monoclonal antibody was used for detection. The cell culture supernatant was diluted with EIA buffer+protease inhibitors (kit buffer containing protease inhibitors (1 mL PI/30 mL buffer)). A 100 μL aliquot of the diluted supernatant was added to each well of the ELISA plate and incubated for 6 hrs at 4° C. The ELISA plate was washed 8 times with phosphate buffered saline (PBS) containing 0.05% Tween 20.
A 100 μL of detection antibody was then added and incubated for 1 hour at 4° C. The plate was washed 8 times with PBS buffer containing 0.05% Tween 20 followed by addition of 100 μL of the chromogen tetramethylbenzidine (TMB). The plate was incubated in the dark at room temperature for about 30 min and a stop solution (1N H2SO4) was added.
The intensity of the color developed was measured at 450 nm. The optical density at 450 nm (OD450) is proportional to the concentration of human Aβ1-40 secreted by the cell. As a reference, N—[N-(3,5-difluorophenacetyl-L-alanyl)]-S-phenylglycine t-butyl ester (DAPT, a γ-secretase inhibitor) was used to indicate 100% inhibition of BACE activity. Thus, the assay measures the ability of a compound of interest to reduce Aβ1-40 secretion. Compound potency was reported as the EC50 by calculating the percent inhibition at all concentration levels and the data were fit with non-linear curve fitting algorithm using in GraphPad Prism.

T1 sequence (P56817 46-457 limits assumed): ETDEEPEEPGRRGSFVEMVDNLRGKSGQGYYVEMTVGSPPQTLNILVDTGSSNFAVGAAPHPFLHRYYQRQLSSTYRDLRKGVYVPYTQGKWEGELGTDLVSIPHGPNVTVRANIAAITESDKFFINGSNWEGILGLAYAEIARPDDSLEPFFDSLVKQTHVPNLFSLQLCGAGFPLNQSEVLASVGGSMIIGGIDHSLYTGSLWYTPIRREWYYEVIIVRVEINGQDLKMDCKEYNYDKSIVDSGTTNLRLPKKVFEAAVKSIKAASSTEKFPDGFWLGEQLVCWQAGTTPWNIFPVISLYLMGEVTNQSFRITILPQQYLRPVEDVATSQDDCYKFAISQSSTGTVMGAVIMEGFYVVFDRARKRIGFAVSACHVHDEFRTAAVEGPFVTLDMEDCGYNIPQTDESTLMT

`O=C(Nc1nc2cc(OCCCc3ccccc3)ccc2[nH]1)c1cc2ccccc2cn1` [Example 8, Isoquinoline-3-carboxylic acid [5-(3-phenyl-propoxy)-1H-benzoimidazol-2-yl]-amide] gave an IC50 (BACE-1 enzyme) of 0.47 µM and an EC50 [1] of 1.2 µM.
In the case of `O=C(Nc1nc2cc(N3CCC(c4ccccc4)CC3)ccc2[nH]1)c1cc2ccccc2cn1` [Example 7, Isoquinoline-3-carboxylic acid [5-(4-phenyl-piperidin-1-yl)-1H-benzoimidazol-2-yl]-amide], the IC50 (BACE-1 enzyme) is reported as 0.1 µM and the EC50 [1] is reported as 1.4 µM.
`COc1cccc(-c2ccc3[nH]c(NC(=O)c4cc5ccccc5cn4)nc3c2)c1` [Example 10, Isoquinoline-3-carboxylic acid [5-(3-methoxy-phenyl)-1H-benzoimidazol-2-yl]-amide] showed an IC50 (BACE-1 enzyme) of 0.16 µM and an EC50 [1] of 1 µM.
Molecule `O=C(Nc1nc2cc(NCc3ccccc3)ccc2[nH]1)c1cc2ccccc2cn1` [Example 11, Isoquinoline-3-carboxylic acid (5-benzylamino-1H-benzoimidazol-2-yl)-amide] has an IC50 (BACE-1 enzyme) of 0.13 µM and an EC50 [1] of 0.6 µM.
In the case of `O=C(Nc1nc2cc(OCc3ccc(C(F)(F)F)cc3)ccc2[nH]1)c1cc2ccccc2cn1` [Example 3, Isoquinoline-3-carboxylic acid [5-(4-trifluoromethyl-benzyloxy)-1H-benzoimidazol-2-yl]-amide], the IC50 (BACE-1 enzyme) is reported as 0.95 µM and the EC50 [1] is reported as 0.55 µM.
With `O=C(Nc1nc2cc(OCc3ccccc3)ccc2[nH]1)c1cc2ccccc2cn1` [Example 1, Isoquinoline-3-carboxylic acid (5-benzyloxy-1H-benzoimidazol-2-yl)-amide] the IC50 (BACE-1 enzyme) was 0.085 µM and the EC50 [1] was 0.12 µM.
With `O=C(Nc1nc2cc(OCCC3CCCC3)ccc2[nH]1)c1cc2ccccc2cn1` [Example 6, Isoquinoline-3-carboxylic acid [5-(2-cyclopentyl-ethoxy)-1H-benzoimidazol-2-yl]-amide] the IC50 (BACE-1 enzyme) was 0.26 µM and the EC50 [1] was 0.16 µM.
`O=C(Nc1nc2cc(OCCc3ccccc3)ccc2[nH]1)c1cc2ccccc2cn1` [Example 2, Isoquinoline-3-carboxylic acid (5-phenethyloxy-1H-benzoimidazol-2-yl)-amide] showed an IC50 (BACE-1 enzyme) of 0.19 µM and an EC50 [1] of 2 µM.
With `O=C(Nc1nc2cc(OCc3ccc(F)cc3)ccc2[nH]1)c1cc2ccccc2cn1` [Example 4, Isoquinoline-3-carboxylic acid [5-(4-fluoro-benzyloxy)-1H-benzoimidazol-2-yl]-amide] the IC50 (BACE-1 enzyme) was 0.1 µM and the EC50 [1] was 0.16 µM.
Work on `O=C(Nc1nc2cc(-c3ccccc3)ccc2[nH]1)c1cc2ccccc2cn1` [Example 9, Isoquinoline-3-carboxylic acid (5-phenyl-1H-benzoimidazol-2-yl)-amide] yielded an IC50 (BACE-1 enzyme) of 0.19 µM and an EC50 [1] of 1.09 µM.
For `O=C(Nc1nc2cc(OCc3ccc(F)cc3F)ccc2[nH]1)c1cc2ccccc2cn1` [Example 5, Isoquinoline-3-carboxylic acid [5-(2,4-difluoro-benzyloxy)-1H-benzoimidazol-2-yl]-amide], the IC50 (BACE-1 enzyme) was 0.86 µM and the EC50 [1] was 1.2 µM.
Work on `O=C(Nc1nc2cc(N(Cc3ccccc3)Cc3ccccc3)ccc2[nH]1)c1cc2ccccc2cn1` [Example 12, Isoquinoline-3-carboxylic acid (5-dibenzylamino-1H-benzoimidazol-2-yl)-amide] yielded an IC50 (BACE-1 enzyme) of 0.38 µM and an EC50 [1] of 2.3 µM.
